Measured values from PubChem BioAssay (NCI).
“And” between values parts separate entries of the source, which are not always exact repeats. Equal entries are not always repeated.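 Method: 48-hour compound exposure of cells in 96-well plates, five concentrations, linear interpolation of endpoints. Abbreviation: GI50, concentration required for 50% inhibition of growth. TGI is the concentration that stops growth completely.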

Assays:
Experiment in all cases: NCI-60 cell line screen, 48 h
HT29 colon = system: HT29 colon
MCF7 breast = system: MCF7 breast
SNB-75 CNS = system: SNB-75 CNS
PC-3 prostate = system: PC-3 prostate
HOP-62 NSCLC = system: HOP-62 NSCLC
T-47D breast = system: T-47D breast
SF-539 CNS = system: SF-539 CNS
NCI-H522 lung = system: NCI-H522 lung
K-562 leukemia = system: K-562 leukemia
MALME-3M melanoma = system: MALME-3M melanoma

SMILES	GI50 (HT29 colon) [µM]	TGI (HT29 colon) [µM]	GI50 (MCF7 breast) [µM]	TGI (MCF7 breast) [µM]	GI50 (SNB-75 CNS) [µM]	TGI (SNB-75 CNS) [µM]	GI50 (PC-3 prostate)	TGI (PC-3 prostate) [µM]	GI50 (HOP-62 NSCLC) [µM]	TGI (HOP-62 NSCLC) [µM]	GI50 (T-47D breast) [µM]	TGI (T-47D breast) [µM]	GI50 (SF-539 CNS) [µM]	TGI (SF-539 CNS) [µM]	GI50 (NCI-H522 lung) [µM]	TGI (NCI-H522 lung)	GI50 (K-562 leukemia) [µM]	TGI (K-562 leukemia) [µM]	GI50 (MALME-3M melanoma) [µM]	TGI (MALME-3M melanoma) [µM]
Cc1cc(C2=NNC(=O)Cc3cc4c(cc32)OCCO4)cc(C)c1N	0.746	> 100	1.13	> 100	1.25	4.32	2.73 µM	> 100	2.72	> 100	4.41	> 100	2.73	8.91	1.24	6.19 µM	–	–	–	–
COc1ccc2nc3cc(Cl)ccc3c(N3CCN(c4ccnc(N5CCOCC5)n4)CC3)c2c1	2.9	16.7	1.89	4.9	10.6	65.3	98.1 µM	> 100	63.1	> 100	–	–	> 100	> 100	1.81	5.09 µM	2.91	> 100	> 100	> 100
CC(=O)O[C@]1(C)OC(=O)[C@@H](C)N1[N+](=O)[O-]	–	> 100	–	–	–	> 100	–	–	–	> 100	–	–	–	> 100	–	> 100 µM	–	> 100	–	> 100
CC/C(=C(/CC)c1ccc([O-])cc1)c1ccc([O-])cc1.CC/C(=C(\CC)c1ccc([O-])cc1)c1ccc([O-])cc1.O=C([CH-]C(=O)c1ccccc1)c1ccccc1.O=C([CH-]C(=O)c1ccccc1)c1ccccc1.O=C([CH-]C(=O)c1ccccc1)c1ccccc1.O=C([CH-]C(=O)c1ccccc1)c1ccccc1.[Ti+4].[Ti+4]	29.8	> 100	–	–	–	–	–	–	22.5	51.3	–	–	20	40.8	–	–	23.9	> 100	30.9	> 100
C/C(=N\N=C(\[Se])N1CCN(c2ccccn2)CC1)c1ccccn1	0.00203	14.2	0.00278	14.3	–	17.5	0.334 µM	14.2	–	–	–	–	0.407	12.2	0.0429	0.761 µM and 3.2 µM	0.00114	–	0.159	3.78
O=C1OCCC1C(O)C1c2ccccc2-c2ccccc21 (centres undefined)	–	> 100	–	–	–	> 100	–	–	–	> 100	–	–	–	–	–	> 100 µM	–	> 100	–	> 100
CC(=O)c1cc2c(cc1Nc1c3ccccc3nc3occ(Cl)c13)OCO2	0.439	> 100	0.0939	> 100	–	–	0.0856 µM	3.71	0.291	> 65.1	–	> 100	0.0302	0.0998	0.0402	1.46 µM	0.037	> 100	0.0796	0.45
O=C(CCCN1CCOCC1)Nc1ccc(Cn2nnc3c2C(=O)c2nnn(Cc4ccc(NC(=O)CCCN5CCOCC5)cc4)c2C3=O)cc1	3.31	8.9	1.03	2.77	1.83	3.24	3.67 µM	> 100	> 100	> 100	–	–	2.17	4.71	1.38	3.59 µM	4.28	> 100	1.21	2.79
C[C@]12CCc3nonc3C1CC[C@@H]1C2CC[C@]2(C)NC(=O)CCC12 (some centres undefined)	–	> 100	–	–	–	> 100	–	–	–	> 100	–	–	–	> 100	–	> 100 µM	–	> 100	–	> 100
C1C[S][Ge]2([S]CCO1)[S]CCOCC[S]2	–	–	–	–	2.51	48.4	–	–	> 100	> 100	–	–	> 100	> 100	> 100	> 100 µM	> 100	> 100	> 100	> 100
Cc1cc(=O)[nH]o1	–	> 100	–	> 100	–	> 100	–	> 100	–	> 100	–	–	–	> 100	–	> 100 µM	–	> 100	–	–
Cn1nnnc1N/N=C/c1ccccc1	–	> 10	–	> 10	–	> 10	–	> 10	–	> 10	–	> 10	–	> 10	–	> 10 µM	–	> 10	–	–
COc1ccc(C(=O)C(C(=O)C(=O)Nc2ccc(Cl)c(Cl)c2)c2ccc(OC)cc2)cc1 (centres undefined)	–	> 100	–	–	–	> 100	–	–	–	> 100	–	–	–	> 100	–	–	–	> 100	–	> 100
COc1c(NC(C)=O)cc(C)cc1NC(C)=O	–	–	–	–	–	> 100	–	–	–	> 100	–	–	–	> 100	–	> 100 µM	–	> 100	–	–
Cc1c(C(=O)C/C(=N/NC(=O)C[n+]2ccccc2)C(=O)Nc2ccccc2)[n+](=O)c2ccccc2n1O	–	> 100	–	–	–	> 100	–	–	–	> 100	–	–	–	> 100	–	> 100 µM	–	> 100	–	> 100
CCOc1cc2c(cc1O)/C(=N\O)C[C@@H]1[C@@H]2CC[C@]2(C)[C@@H](O)CC[C@@H]12	3.94	> 100	0.0264	–	0.00232	0.0166	0.767 µM and 0.491 µM	> 100	–	> 100	–	–	0.0269	–	–	–	0.00978	> 94.1	–	–
C=CC[P+](c1ccccc1)(c1ccccc1)c1ccccc1	3.21	> 100	2.84	> 100	3.58	57.9	1.78 µM	33.5	12.1	> 100	–	–	8.42	> 100	1.99	20.8 µM	2.12	> 100	–	–
CC(C)(C)CC(C)(C)c1cc2c(O)c(c1)Cc1cc(C(C)(C)CC(C)(C)C)cc(c1O)Cc1cc(C(C)(C)CC(C)(C)C)cc(c1O)Cc1cc(C(C)(C)CC(C)(C)C)cc(c1O)Cc1cc(C(C)(C)CC(C)(C)C)cc(c1O)Cc1cc(C(C)(C)CC(C)(C)C)cc(c1O)C2	–	> 100	–	–	–	> 100	–	–	–	> 100	–	–	–	> 100	–	> 100 µM	–	> 100	–	> 100
